Data published in patent US20030100580A1, “Urotensin-II receptor antagonists” (priority 2002, published 2003).
Values belong to the molecule of their own block, whether it stands above or below them.

Tests used:
[1] = target: T1, cloned human and rat GPR-14 (UniProt Q9UKP6); test: Radioligand binding ([125I] h-U-II) to HEK-293 cell membranes containing GPR-14; settings: HEK-293 membranes, 200 pM [125I] h-U-II; human or rat receptor not specified
T1 sequence (Q9UKP6 1-389): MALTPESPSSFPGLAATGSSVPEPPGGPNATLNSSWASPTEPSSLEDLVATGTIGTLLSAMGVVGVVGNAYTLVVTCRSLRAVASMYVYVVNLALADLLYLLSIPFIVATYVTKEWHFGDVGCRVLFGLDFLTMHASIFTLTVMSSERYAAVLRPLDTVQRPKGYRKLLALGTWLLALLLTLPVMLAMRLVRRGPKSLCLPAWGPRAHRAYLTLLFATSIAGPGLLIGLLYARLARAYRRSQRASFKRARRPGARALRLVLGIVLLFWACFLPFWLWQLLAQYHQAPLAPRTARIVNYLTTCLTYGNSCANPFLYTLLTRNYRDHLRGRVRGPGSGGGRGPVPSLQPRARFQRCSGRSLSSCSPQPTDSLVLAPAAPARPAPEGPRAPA
Method: HEK-293 cell membranes containing stable cloned human and rat GPR-14 (20 ug/assay) were incubated with 200 pM [125I] h-U-II (200 Ci/mmol^−1 in the presence of increasing concentrations of test compounds in DMSO (0.1 nM to 10 uM), in a final incubation volume of 200 ul (20 mM Tris-HCl, 5 mM MgCl2). Incubation was done for 30 minutes at room temperature followed by filtration GF/B filters with Brandel cell harvester. ^125I labeled U-U binding was quantitated by gamma counting. Nonspecific binding was defined by ^1251I U-II binding in the presence of 100 nM of unlabeled human U-II. Analysis of the data was performed by nonlinear least square fitting.

rat-isolated aorta = settings: cited from earlier work

Ki [1]: 1300 nM
Compound: CN(C)CCOc1cc(NS(=O)(=O)c2ccc(Br)cc2)ccc1I [Example 8, 4-Bromo-N-[4-iodo-3-(2-dimethylamino-ethoxy)-phenyl]-benzenesulfonamide]

melting point: 228 to 229 °C
Compound: COc1ccc(S(=O)(=O)Nc2ccc(Cl)c(OCCN(C)C)c2)cc1OC [Example 1, N-[4-Chloro-3-(2-dimethylamino-ethoxy)phenyl]-3,4-dimethoxy-benzenesulfonamide]

Compound: CC(C)[C@H](NC(=O)[C@@H]1CSSC[C@H](NC(=O)[C@H](CC(=O)O)NC(=O)[C@@H]2CCCN2C(=O)[C@@H](NC(=O)[C@@H](N)CCC(=O)O)[C@@H](C)O)C(=O)N[C@@H](Cc2ccccc2)C(=O)N[C@@H](Cc2c[nH]c3ccccc23)C(=O)N[C@@H](CCCCN)C(=O)N[C@@H](Cc2ccc(O)cc2)C(=O)N1)C(=O)O [Human Urotensin-II]
contractile activity (rat-isolated aorta): most potent contractile agonist identified to date
